Measured values as given in patent US12077508B2, “Inhibitors of the Notch transcriptional activation complex kinase (“NACK”) and methods for use of the same” (UNIVERSITY OF MIAMI, priority 2018, dated 2024).

Experiments:
[1] = biological target: T1, NACK binding to the Notch transcription complex (Mus musculus, UniProt Q571I4); test: CSL-DNA affinity precipitation (CSL-DAP) assay; assay type: cell-based
T1 construct: expressed in transfected cells; host or cells: 293T
T1 sequence (Q571I4 1-1373): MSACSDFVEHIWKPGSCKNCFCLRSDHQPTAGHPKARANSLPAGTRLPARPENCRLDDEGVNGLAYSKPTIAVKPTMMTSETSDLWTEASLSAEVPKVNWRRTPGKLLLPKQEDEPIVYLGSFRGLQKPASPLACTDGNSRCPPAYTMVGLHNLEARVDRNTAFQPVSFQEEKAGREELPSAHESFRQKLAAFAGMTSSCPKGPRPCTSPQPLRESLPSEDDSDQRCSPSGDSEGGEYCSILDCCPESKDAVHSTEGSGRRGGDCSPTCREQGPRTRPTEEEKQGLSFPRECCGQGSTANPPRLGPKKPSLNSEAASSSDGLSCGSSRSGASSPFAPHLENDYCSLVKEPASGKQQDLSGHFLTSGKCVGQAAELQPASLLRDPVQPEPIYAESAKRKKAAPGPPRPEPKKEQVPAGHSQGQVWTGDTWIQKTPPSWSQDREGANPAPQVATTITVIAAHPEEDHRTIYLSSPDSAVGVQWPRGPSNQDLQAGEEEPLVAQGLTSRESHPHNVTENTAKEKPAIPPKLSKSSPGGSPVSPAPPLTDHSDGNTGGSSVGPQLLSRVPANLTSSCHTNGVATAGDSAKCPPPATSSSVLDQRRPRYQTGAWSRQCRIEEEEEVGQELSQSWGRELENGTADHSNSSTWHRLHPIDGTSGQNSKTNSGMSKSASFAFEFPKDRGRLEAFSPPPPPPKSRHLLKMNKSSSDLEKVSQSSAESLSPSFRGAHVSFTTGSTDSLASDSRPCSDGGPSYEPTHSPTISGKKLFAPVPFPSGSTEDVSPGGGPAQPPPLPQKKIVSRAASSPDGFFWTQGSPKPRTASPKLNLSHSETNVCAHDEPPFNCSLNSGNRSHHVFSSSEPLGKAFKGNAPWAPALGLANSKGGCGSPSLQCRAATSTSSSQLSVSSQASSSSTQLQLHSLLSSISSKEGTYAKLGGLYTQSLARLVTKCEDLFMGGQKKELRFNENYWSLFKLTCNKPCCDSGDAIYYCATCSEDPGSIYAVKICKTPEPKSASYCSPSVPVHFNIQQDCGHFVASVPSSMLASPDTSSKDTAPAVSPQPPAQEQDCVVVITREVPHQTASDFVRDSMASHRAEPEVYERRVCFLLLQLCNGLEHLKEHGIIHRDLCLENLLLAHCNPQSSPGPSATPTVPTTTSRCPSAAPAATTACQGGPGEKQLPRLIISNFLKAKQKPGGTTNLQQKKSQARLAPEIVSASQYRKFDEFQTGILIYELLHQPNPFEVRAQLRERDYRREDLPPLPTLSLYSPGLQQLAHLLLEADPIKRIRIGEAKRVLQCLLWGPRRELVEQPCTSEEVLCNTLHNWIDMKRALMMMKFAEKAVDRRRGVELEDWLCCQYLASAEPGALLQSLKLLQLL
Protocol: (§1) To determine the specificity of hit-to-lead compounds targeting NACK activity, it was evaluated whether iNACK can block NACK binding to the Notch complex by conducting CSL-DNA affinity precipitation (CSL-DAP) assay. […] In the CSL-DAP assay, 293T cells were co-transfected with N1^ICD, Maml1 and NACK. Transfections were performed using LipoJet transfection reagent (SL100468, SignaGen Laboratories) according to the manufacturer recommended protocol. After two days of transfection, cells were treated with compounds for 2 hours prior collecting the cell lysate. Cell lysates were incubated with DNA streptavidin beads. Proteins that bound to the beads were analyzed by Western blot.
(§2) Western blot was performed as described previously (See Weaver et al., Cancer Research 74, 4741-4751 (2014)). Primary antibodies were α-NACK (1:1,000; against aa209-287 of NACK and affinity purified), α-CSL (1:1,000; generated against full-length CSL and affinity purified), α-Maml1 (1:5,000; Cell Signaling Technology), α-cleaved-Notch1 (1:1,000; Cell Signaling Technology).

[2] = tested on: NACK binding to the Notch transcription complex; test: CSL-DNA affinity precipitation (CSL-DAP) assay; assay type: cell-based, mouse; conditions: Y999F NACK and Q1024E NACK mutants (mouse NACK); FIG. 10D
Protocol: as §1, §2

[3] = tested on: Notch target genes; test: RT-qPCR of Notch target genes in Notch/NACK-dependent cells; assay type: cell-based, human; conditions: OE33; FIG. 6B
Protocol: To assess the effect of NACK inhibitor on Notch target gene transcription, Notch/NACK-dependent cell lines were treated with NACK inhibitors. The cells were also treated with DAPT as a positive control. DMSO treated cells served as a vehicle control for comparison. Gene expression was normalized to HPRT, and TBP served as a negative control to validate normalization.
Reverse transcription and qPCR analysis were performed as described previously (See Weaver et al., Cancer Research 74, 4741-4751 (2014)). Gene expression was normalized to the TATA-binding protein (“TBP”) gene. As a control, hypoxanthine phosphoribosyltransferase 1 (“HPRT”) gene expression was also monitored.

[4] = tested on: OE33 cells; test: Senescence-associated β-galactosidase assay; assay type: cell-based, human; conditions: treatment for 3 weeks, FIG. 9B
Protocol: After prolonged Z271-0326 or DAPT treatment for 3 weeks of live cells of OE33, cells were measured by senescence-associated β-galaotosidase activity according to the manufacture recommended protocol (Senescence β-Galaotosidase Staining Kit, Cell Signaling, #9860).

[5] = Plasma pharmacokinetics; assay type: in vivo, male C57 BL/6 mice; conditions: for Tmax: ip
From the text: The plasma pharmacokinetic profile of Z271-0326 was investigated following a single intravenous and intraperitoneal dose administration in male C57 BL/6 mice (FIG. 12). […] The Vss was similar to the normal volume of total body water (0.7 L/kg). The Vss is a pharmacokinetic parameter, which represents the volume distribution of a drug in the body tissue. […] This dose was MTD for the 4-week efficacy studies shown in preliminary data.
The plasma pharmacokinetic profile of Z271-0326 was investigated following a single intravenous and intraperitoneal dose administration in male C57 BL/6 mice.

CCN(CC)C(=O)c1cnn2ccc(C3CCN(S(=O)(=O)c4ccc(NC(C)=O)cc4)CC3)cc12 [Compound Z271-0326, 5-(1-((4-acetamidophenyl)sulfonyl)piperidin-4-yl)-N,N-diethylpyrazolo[1,5-a]pyridine-3-carboxamide]
inhibition of NACK binding to the Notch transcription complex ([1]; 293T cells transfected with N1ICD, Maml1, NACK, 2 hours treatment, FIG. 6A): dramatically inhibit NACK binding to the NOTCH transcription complex | recruitment of NACK to the Notch ternary complex ([1]; WT NACK, FIG. 10D): block recruitment of NACK to the Notch ternary complex | recruitment of NACK to the Notch complex [2]: insensitive to inhibition | mRNA levels of Notch target genes Hes1 and Notch3 [3]: decrease the mRNA levels of Notch target genes Hes1 and Notch3 | cellular senescence (senescence-associated β-galactosidase activity) [4]: resulted in the induction of cellular senescence | Tmax ([5]; male, C57BL/6, mouse, plasma, single intraperitoneal 25 mg/kg): 15 min | Tmax ([5]; male, C57BL/6, mouse, plasma, single intraperitoneal 100 mg/kg): 60 min | clearance ([5]; male, C57BL/6, mouse, plasma, single intravenous 5 mg/kg, read-out: systemic plasma clearance): 1.8 L/h/kg | half-life ([5]; male, C57BL/6, mouse, plasma, single intravenous 5 mg/kg, read-out: terminal elimination half-life (converted)): 13.8 min | Vd ([5]; male, C57BL/6, mouse, plasma, single intravenous 5 mg/kg, similar to total body water, read-out: Vss): ~0.7 L/kg | time plasma concentrations quantifiable up to ([5]; single intraperitoneal 25 mg/kg): up to 4 hr | time plasma concentrations quantifiable up to ([5]; single intraperitoneal 100 mg/kg): up to 24 hr
